The results in this text go back to patent US9133219B2, “Bicyclic antibiotics” (Basilea Pharmaceutica AG, priority 2009, dated 2015).

Each structure is given as a SMILES string. Converted amounts (≈) assume the structure as drawn.

Common to all, as to assay type: cell-based
One assay relates to Streptococcus pneumoniae. The experiment in a line: Anti-microbial activity assay, MIC by broth microdilution (CAMHB with 5% horse serum). The note with it: Streptococcus pneumoniae; strain ATCC49619; CAMHB with 5% horse serum; read-out: MIC Streptococcus pneumoniae ATCC49619. The method, then: (§1) Anti-Microbial Activity Assay.
(§2) The antibacterial activity of compounds is determined by the minimal inhibitory concentration (MIC) method. MICs for all bacteria except pneumococci and Haemophilus influenzae are obtained by broth microdilution with cation-adjusted Mueller-Hinton broth (CAMHB; BBL), according to CLSI guidelines (National Committee for Clinical Laboratory Standards. 2003. Methods for dilution antimicrobial susceptibility tests for bacteria that grow aerobically, 5th ed.; approved standard M7-A6. National Committee for Clinical Laboratory Standards, Wayne, Pa.), with the following modifications: (i) for pneumococci CAMHB is supplemented with 5% (^v/v) horse serum; (ii) for Haemophilus influenzae CAMHB is supplemented with 5% (^v/v) Fildes enrichment (BBL) (Pankuch, G. A., Hoellman, D. B., Lin, G., Bajaksouzian, S., Jacobs, M. R., and Appelbaum, P. C. 1998. Activity of HMR 3647 compared to those of five agents against Haemophilus influenzae and Moraxella catarrhalis by MIC determination and time-kill assay. Antimicrob. Agents Chemother. 42:3032-3034). Microtiter plates are incubated at 35° C. in ambient air for 20 to 24 h, then inspected using an illuminated microtiter plate reader fitted with a magnifying mirror (MIC 2000; Cooke Laboratory Products, Alexandria, Va.). Compounds of the present invention are tested against several bacteria strains comprising some Acinetobacter baumannii, Enterococcus faecalis, Enterococcus faecitan, Escherichia coli, Haemophilus influenzae, Klebsiella pneumoniae, Pseudomonas aeruginosa, Staphylococcus aureus, Staphylococcus epidermidis and Streptococcus pneumoniae.

The test system of assay [1] is Staphylococcus aureus and/or Staphylococcus epidermidis and/or Streptococcus pneumoniae. As to the kind of experiment: MIC summary statement, staphylococci and pneumococci. The note with it: generally, for Staphylococcus aureus and/or Staphylococcus epidermidis and/or Streptococcus pneumoniae. As to the method:
as §1, §2

Another assay concerns Escherichia coli. The experiment in a line: Anti-microbial activity assay, MIC by broth microdilution. To be noted: Escherichia coli; strain UB1005; read-out: MIC Escherichia coli UB1005. The method, then: as §1, §2
The test system of the next assay is Staphylococcus aureus. The description is as above. To be noted: Staphylococcus aureus; strain ATCC29213; read-out: MIC Staphylococcus aureus ATCC29213. As to the method:
as §1, §2

Assay [2] relates to Staphylococcus epidermidis. The assay is described as above. The note with it: Staphylococcus epidermidis; strain ATCC14990. As to the method:
as §1, §2

Assay [3] deals with Staphylococcus aureus and/or Staphylococcus epidermidis. The experiment in a line: MIC summary statement, staphylococci. The note with it: generally, for Staphylococcus aureus and/or Staphylococcus epidermidis. The method, then: as §1, §2
The test system of assay [4] is Staphylococcus aureus and/or Staphylococcus epidermidis and/or Streptococcus pneumoniae and/or Escherichia coli. As to the kind of experiment: MIC summary statement, staphylococci, pneumococci and E. coli. To be noted: generally, for S. aureus and/or S. epidermidis and/or S. pneumoniae and/or E. coli; in most case of less than 2 mg/L. The method, then: as §1, §2

As for `COc1ccc2ncc(OCC[C@H]3CC[C@H](NC(=O)c4ccc5c(c4)NC(=O)CS5)CC3)cc2n1` [Example 2, 3-oxo-3,4-dihydro-2H-benzo[1,4]thiazine-6-carboxylic acid {trans-4-[2-(6-methoxy-[1,5]naphthyridin-3-yloxy)-ethyl]-cyclohexyl}-amide], the MIC with Streptococcus pneumoniae is ≤ 2 µg/mL; in assay [1], ≤ 2 µg/mL; in the assay on Escherichia coli, > 32 µg/mL; with Staphylococcus aureus, ≤ 2 µg/mL; in assay [2], ≤ 2 µg/mL; in assay [3], ≤ 2 µg/mL.
Take `COc1ccc2ncc(OCCN3CCC(NC(=O)c4cc(-c5cccs5)on4)CC3)nc2c1` [Example 5, 5-thiophen-2-yl-isoxazole-3-carboxylic acid {1-[2-(7-methoxy-quinoxalin-2-yloxy)-ethyl]-piperidin-4-yl}-amide]: the MIC in the assay on Streptococcus pneumoniae was ≤ 2 µg/mL; in assay [1], ≤ 2 µg/mL; in the assay on Escherichia coli it was > 32 µg/mL; in the assay on Staphylococcus aureus, ≤ 2 µg/mL; in assay [2] it was ≤ 2 µg/mL; in assay [3], ≤ 2 µg/mL.
In the case of `COc1ccc2ncc(OCCCN3CCC(CNCc4ccc5c(n4)NC(=O)CO5)CC3)nc2c1` [Example 9, 6-[({1-[3-(7-methoxy-quinoxalin-2-yloxy)-propyl]-piperidin-4-ylmethyl}-amino)-methyl]-4H-pyrido[3,2-b][1,4]oxazin-3-one], the MIC in the assay on Streptococcus pneumoniae is ≤ 2 µg/mL; in assay [1], ≤ 2 µg/mL; with Escherichia coli, 4 µg/mL (≈ 8.12 µM); with Staphylococcus aureus, ≤ 2 µg/mL; in assay [2] it was 4 µg/mL (≈ 8.12 µM); in assay [4] it was ≤ 4 µg/mL. In addition, the MIC in assay [3] is ≤ 2 µg/mL.
For `COc1ccc2ncc(SCCN3CCC(NC(=O)c4cc(-c5cccs5)on4)CC3)nc2c1` [Example 35, 5-thiophen-2-yl-isoxazole-3-carboxylic acid {1-[2-(7-methoxy-quinoxalin-2-ylsulfanyl)-ethyl]-piperidin-4-yl}-amide], the MIC in the assay with Streptococcus pneumoniae is ≤ 2 µg/mL; in assay [1], ≤ 2 µg/mL; in the assay with Escherichia coli, > 32 µg/mL; with Staphylococcus aureus it was ≤ 2 µg/mL; in assay [2] it was ≤ 2 µg/mL; in assay [3] it was ≤ 2 µg/mL.
As for `COc1ccc2ncc(SCCN3CCC(NCCSc4cccs4)CC3)nc2c1` [Example 38, {1-[2-(7-methoxy-quinoxalin-2-ylsulfanyl)-ethyl]-piperidin-4-yl}-[2-(thiophen-2-ylsulfanyl)-ethyl]-amine], the MIC with Streptococcus pneumoniae was ≤ 2 µg/mL; in assay [1], ≤ 2 µg/mL; in the assay with Escherichia coli it was 16 µg/mL (≈ 34.7 µM); in the assay on Staphylococcus aureus, ≤ 2 µg/mL; in assay [2], ≤ 2 µg/mL; in assay [3], ≤ 2 µg/mL.
Regarding `COc1ccc2ncc(SCCN3CCC(NC(=O)c4ccc5c(c4)OCCO5)CC3)nc2c1` [Example 39, 2,3-dihydro-benzo[1,4]dioxine-6-carboxylic acid {1-[2-(7-methoxy-quinoxalin-2-ylsulfanyl)-ethyl]-piperidin-4-yl}-amide], the MIC with Streptococcus pneumoniae is ≤ 2 µg/mL; in assay [1], ≤ 2 µg/mL; in the assay with Escherichia coli it was ≥ 32 µg/mL; in the assay with Staphylococcus aureus, ≤ 2 µg/mL; in assay [2], ≤ 2 µg/mL; in assay [3], ≤ 2 µg/mL.
Consider `COc1ccc2ncc(SCCN3CCC(NCc4ccc5c(c4)OCCO5)CC3)nc2c1` [Example 41, (2,3-dihydro-benzo[1,4]dioxin-6-ylmethyl)-{1-[2-(7-methoxy-quinoxalin-2-ylsulfanyl)-ethyl]-piperidin-4-yl}-amine], for which the MIC is ≤ 2 µg/mL with Streptococcus pneumoniae; ≤ 2 µg/mL in assay [1]; 8 µg/mL (≈ 17.1 µM) with Escherichia coli; ≤ 2 µg/mL in the assay on Staphylococcus aureus; ≤ 2 µg/mL in assay [2]; ≤ 2 µg/mL in assay [3].
As to `COc1ccc2ncc(SCCN3CCC(NCc4cc(-c5cccs5)on4)CC3)nc2c1` [Example 42, {1-[2-(7-methoxy-quinoxalin-2-ylsulfanyl)-ethyl]-piperidin-4-yl}-(5-thiophen-2-yl-isoxazol-3-ylmethyl)-amine], the MIC in the assay on Streptococcus pneumoniae was ≤ 2 µg/mL; in assay [1], ≤ 2 µg/mL; in the assay on Escherichia coli it was 8 µg/mL (≈ 16.6 µM); in the assay on Staphylococcus aureus, ≤ 2 µg/mL; in assay [2] it was ≤ 2 µg/mL; in assay [3], ≤ 2 µg/mL.
Take `COc1ccc2ncc(SCCN3CCC(N(C)Cc4ccc5c(c4)OCCO5)CC3)nc2c1` [Example 43, (2,3-dihydro-benzo[1,4]dioxin-6-ylmethyl)-{1-[2-(7-methoxy-quinoxalin-2-ylsulfanyl)-ethyl]-piperidin-4-yl}-methyl-amine]: the MIC is ≤ 2 µg/mL in the assay with Streptococcus pneumoniae; ≤ 2 µg/mL in assay [1]; 16 µg/mL (≈ 33.3 µM) with Escherichia coli; ≤ 2 µg/mL in the assay with Staphylococcus aureus; ≤ 2 µg/mL in assay [2]; ≤ 2 µg/mL in assay [3].
With `COc1ccc2ncc(SCCN3CCC(NC(=O)c4cc5c(cc4Cl)SCCN5)CC3)nc2c1` [Example 44, 7-chloro-3,4-dihydro-2H-benzo[1,4]thiazine-6-carboxylic acid {1-[2-(7-methoxy-quinoxalin-2-ylsulfanyl)-ethyl]-piperidin-4-yl}-amide], the MIC in the assay with Streptococcus pneumoniae was 4 µg/mL (≈ 7.55 µM); with Escherichia coli, 4 µg/mL (≈ 7.55 µM); in the assay on Staphylococcus aureus, ≤ 2 µg/mL; in assay [2], ≤ 2 µg/mL; in assay [4] it was ≤ 4 µg/mL; in assay [3] it was ≤ 2 µg/mL.
In the case of `CCN(Cc1ccc2c(c1)OCCO2)C1CCN(CCSc2cnc3ccc(OC)cc3n2)CC1` [Example 47, (2,3-dihydro-benzo[1,4]dioxin-6-ylmethyl)-ethyl-{1-[2-(7-methoxy-quinoxalin-2-ylsulfanyl)-ethyl]-piperidin-4-yl}-amine], the minimal inhibitory concentration (MIC) in the assay with Streptococcus pneumoniae was ≤ 2 µg/mL; in assay [1], ≤ 2 µg/mL; in the assay on Escherichia coli it was 32 µg/mL (≈ 64.7 µM); in the assay on Staphylococcus aureus it was ≤ 2 µg/mL; in assay [2], ≤ 2 µg/mL; in assay [3], ≤ 2 µg/mL.
Consider `COc1ccc2ncc(SCCN3CCC(NC(=O)c4nc5c(cc4Cl)SCC(=O)N5)CC3)nc2c1` [Example 51, 7-chloro-3-oxo-3,4-dihydro-2H-pyrido[3,2-b][1,4]thiazine-6-carboxylic acid {1-[2-(7-methoxy-quinoxalin-2-ylsulfanyl)-ethyl]-piperidin-4-yl}-amide], for which the MIC with Streptococcus pneumoniae is 4 µg/mL (≈ 7.34 µM); with Escherichia coli it was 4 µg/mL (≈ 7.34 µM); in the assay on Staphylococcus aureus it was ≤ 2 µg/mL; in assay [2], ≤ 2 µg/mL; in assay [4], ≤ 4 µg/mL; in assay [3], ≤ 2 µg/mL.
On to `COc1ccc2ncc(SCCN3CCC(N(C)C(=O)c4ccc5c(c4)NC(=O)CS5)CC3)nc2c1` [Example 52, 3-oxo-3,4-dihydro-2H-benzo[1,4]thiazine-6-carboxylic acid {1-[2-(7-methoxy-quinoxalin-2-ylsulfanyl)-ethyl]-piperidin-4-yl}-methyl-amide], for which the MIC in the assay with Streptococcus pneumoniae was ≤ 2 µg/mL; in assay [1], ≤ 2 µg/mL; with Escherichia coli, 16 µg/mL (≈ 30.6 µM); in the assay with Staphylococcus aureus, ≤ 2 µg/mL; in assay [2], ≤ 2 µg/mL; in assay [3], ≤ 2 µg/mL.
With `COc1ccc2ncc(SCCN3CCC(NC(=O)c4cc5c(cc4Cl)SCC(=O)N5)CC3)cc2c1` [Example 54, 7-chloro-3-oxo-3,4-dihydro-2H-benzo[1,4]thiazine-6-carboxylic acid {1-[2-(6-methoxy-quinolin-3-ylsulfanyl)-ethyl]-piperidin-4-yl}-amide], the MIC with Streptococcus pneumoniae was 4 µg/mL (≈ 7.36 µM); in the assay on Escherichia coli, 4 µg/mL (≈ 7.36 µM); with Staphylococcus aureus, ≤ 2 µg/mL; in assay [2], ≤ 2 µg/mL; in assay [4], ≤ 4 µg/mL; in assay [3] it was ≤ 2 µg/mL.
For `COc1ccc2ncc(SCCN3CCC(NC(=O)c4ccc5c(n4)NC(=O)CS5)CC3)cc2c1` [Example 55, 3-oxo-3,4-dihydro-2H-pyrido[3,2-b][1,4]thiazine-6-carboxylic acid {1-[2-(6-methoxy-quinolin-3-ylsulfanyl)-ethyl]-piperidin-4-yl}-amide], the MIC with Streptococcus pneumoniae is ≤ 2 µg/mL; in assay [1], ≤ 2 µg/mL; in the assay with Escherichia coli it was 16 µg/mL (≈ 31.4 µM); in the assay with Staphylococcus aureus, ≤ 2 µg/mL; in assay [2], ≤ 2 µg/mL; in assay [3], ≤ 2 µg/mL.
Consider `COc1ccc2ncc(SCCN3CCC(NC(=O)c4nc5c(cc4Cl)SCC(=O)N5)CC3)cc2c1` [Example 56, 7-chloro-3-oxo-3,4-dihydro-2H-pyrido[3,2-b][1,4]thiazine-6-carboxylic acid {1-[2-(6-methoxy-quinolin-3-ylsulfanyl)-ethyl]-piperidin-4-yl}-amide], for which the MIC with Streptococcus pneumoniae is 16 µg/mL (≈ 29.4 µM); in the assay with Escherichia coli, 4 µg/mL (≈ 7.35 µM); in the assay on Staphylococcus aureus, ≤ 2 µg/mL; in assay [2] it was 4 µg/mL (≈ 7.35 µM); in assay [3], ≤ 2 µg/mL.
